Here are results for one compound from US10786580B2, “Cholecystokinin 2 receptor targeted NIR imaging and use thereof” (On Target Laboratories, LLC, priority 2016, dated 2020).

Read-outs that look alike come from different tables or passages of the source.

The target of series [1] is T1, CCK2R (Homo sapiens, UniProt P32239).
T1 sequence (P32239 1-447): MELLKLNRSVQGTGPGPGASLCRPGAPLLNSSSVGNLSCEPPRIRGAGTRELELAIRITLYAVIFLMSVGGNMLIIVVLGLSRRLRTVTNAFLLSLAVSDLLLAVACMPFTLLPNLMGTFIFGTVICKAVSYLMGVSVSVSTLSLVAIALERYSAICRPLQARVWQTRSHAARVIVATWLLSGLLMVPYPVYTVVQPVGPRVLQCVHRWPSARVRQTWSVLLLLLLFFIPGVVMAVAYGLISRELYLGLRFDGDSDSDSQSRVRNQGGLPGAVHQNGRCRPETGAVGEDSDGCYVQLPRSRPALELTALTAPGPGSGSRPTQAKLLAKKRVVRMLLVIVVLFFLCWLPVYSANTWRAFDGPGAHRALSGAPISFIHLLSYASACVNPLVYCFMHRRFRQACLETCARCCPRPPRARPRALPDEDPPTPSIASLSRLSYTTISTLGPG
The series is described as follows: In vitro binding of CCK2R-NIR compounds to HEK-CCK2R cells (cell bound fluorescence). Set-up: expressed in transfected cells; host or cells: HEK (human embryonic kidney) cells, HEK-CCK2R, gift from Dr. Mark Hellmich (UTMB). The conditions noted are these: for Kd: 1 h at 37° C. How it is done: FIG. 4 depicts the binding affinities of CCK2R-NIR compounds 21, 42-44 to CCK2R. CCK2R-positive HEK-CCK2R cancer cells were incubated for 1 h at 37° C. with increasing concentrations of compounds. Media was then removed, washed with fresh media three times, and replaced with PBS. Cell bound fluorescence was assayed as using fluorometer.
CCK2R-positive HEK-CCK2R cancer cells were incubated for 1 h at 37° C. with increasing concentrations of compounds. Media was then removed, washed with fresh media three times, and replaced with PBS. Cell bound fluorescence was assayed as using fluorometer.
FIG. 13 illustrates the binding affinity of […] to CCK2R. CCK2R-positive HEK-CCK2R cancer cells were incubated for 1 h at 37° C. with increasing concentrations of compound 21. Media was then removed, washed with fresh media three times, and replaced with PBS. Cell bound fluorescence was assayed as using fluorometer.
(§1) HEK-CCK2 cells (a human embryonic kidney cells transfected with CCK2 receptor) were a kind gift from Dr. Mark Hellmich (University of Texas Medical Branch, Galveston, Tex.) and grown as a monolayer using Dulbecco's Modified Eagles Medium (GIBCO) (Gibco, NY) 10% heat-inactivated fetal bovine serum (Atlanta Biological, GA) and 1% penicillin streptomycin (Gibco, NY) in a 5% carbon dioxide: 95% air-humidified atmosphere at 37° C. for at least six passages before they were used for the assays.
HEK cells that overexpress CCK2 were seeded into a T75 flask and allowed to form a monolayer over 48 h. After trypsin digestion, release cells were transferred into centrifuge tubes (1×10^6 cells/tube) and centrifuged. The medium was replaced with fresh medium containing increasing concentration of requisite CCK2R-Ligand-NIR dye compound in the presence or absence of 100-fold excess the ligand, a high affinity CCK2 receptor antagonist, and incubated for 1 h at 37° C. After rinsing with fresh medium (2×1.0 mL) and PBS (1×1.0 mL), cells were resuspended in PBS (1.0 mL) and cell bound fluorescence was analyzed (100,000 cells/sample) using a fluorometer (Cary, Agilent). The relative binding affinities were calculated using a plot of % cell bound fluorescence versus the log concentration of the test article using GraphPad Prism 4.

The subject of series [2] is HEK-CCK2R tumor xenograft. The series is described as follows: Whole-body imaging and ex vivo tissue biodistribution in mice bearing HEK-CCK2R tumor xenografts. The method, then:
FIG. 2A illustrates the overlay of whole body fluorescence image over white light images after adjusting the threshold for compound 40. HEK-CCK2R tumor xenograft bearing mice were injected with 10 nmol of […] and imaged with IVIS imager (ex=745 nm, em=ICG, exposure time=1 s) at 2 h post-injection. After imaging, selected tissues were harvested, and tissues were imaged with IVIS imager (ex=745 nm, em=ICG, exposure time=1 s).
FIG. 2C depicts the overlay of whole body fluorescence image over white light images after adjusting the threshold for compound 41. HEK-CCK2R tumor xenograft bearing mice were injected with 10 nmol of […] and imaged with IVIS imager (ex=745 nm, em=ICG, exposure time=1 s) at 2 h post-injection. After imaging, selected tissues were harvested, and tissues were imaged with IVIS imager (ex=745 nm, em=ICG, exposure time=1 s).
FIG. 5A illustrates the analysis of compound 21 overlay of whole body fluorescence image over white light images after adjusting the threshold. HEK-CCK2R tumor xenograft bearing mice were injected with 10 nmol of 21 and imaged with IVIS imager (ex=745 nm, em=ICG, exposure time=1 s) at 2 h post-injection. After imaging, selected tissues were harvested, and tissues were imaged with IVIS imager (ex=745 nm, em=ICG, exposure time=1 s).
FIG. 9 depicts a head-to-head comparison of fluorescence in the tumors from the mice injected with CCK2R-targeted-NIR dye compounds 21, 40-44. Overlay of tumor fluorescence image over white light images. HEK-CCK2R tumor xenograft bearing mice were injected with 10 nmol of requisite compound and imaged with IVIS imager at 2 h post-injection. After imaging, tumor tissues were harvested, and imaged with IVIS imager (ex=745 nm, em=ICG, exposure time=1 s).
FIG. 14E depicts the in vivo efficacy and specificity of 21 by whole-body imaging with nude mice bearing HEK-CCK2R tumors.
FIG. 14F depicts the ex vivo tissue biodistribution of mice of FIG. 14E dissecting after whole-body imaging.
Athymic female nude (nu/nu) mice (5 weeks old, 18-20 g) were purchased from Envigo (Indianapolis, Ind.) and maintained on normal rodent diet (Teklad, Wis.). Animals were housed 5/cage in a barrier, pathogen-free cloaked rack. Autoclaved tap water and food were given as needed. The animals were housed in a sterile environment on a standard 12 hour light-dark cycle for the duration of the study. […]
six-weeks-old female nu/nu mice were inoculated subcutaneously with HEK-CCK2 cells (5.0×10^6/mouse in 50% high concentrated matrigel in GIBCO medium) on the shoulder. Growth of the tumors was measured in perpendicular directions every 2 days using a caliper (body weights were monitored on the same schedule), and the volumes of the tumors were calculated as 0.5×L×W^2 (L=longest axis and W=axis perpendicular to L in millimeters). […]

Series [3] in a line: Excitation and emission spectra. The series is classed as physicochemical. Conditions: FIG. 12. The text has this:
FIG. 12 depicts the chemical structure, excitation and emission spectra of compound 21 (OTL81).

The test system of series [4] is HEK-CCK2 cells. Briefly: Epi-fluorescence microscopy of binding to CCK2R expressing HEK cells. The series is classed as cell-based, human. The conditions noted are these: FIGS. 14c & d. The method, then: as §1
Where [5] appears, read: FIG. 14, mice bearing HEK-CCK2R tumor xenografts.

Usually Kd stands for the concentration at which binding is half-saturated. As to `CC(C)(C)C(=O)CN1C(=O)[C@H](NC(=O)Nc2cccc(C(=O)N[C@H](CCC(=O)N[C@@H](Cc3ccc(OC4=C(/C=C/C5=[N+](CCCCS(=O)(=O)[O-])c6ccc(S(=O)(=O)O)cc6C5(C)C)CCC/C4=C\C=C4\N(CCCCS(=O)(=O)O)c5ccc(S(=O)(=O)O)cc5C4(C)C)cc3)C(=O)O)C(=O)O)c2)CN(C2CCCCC2)c2ccccc21` [Compound 21, 4-(2-((E)-2-((E)-2-(4-((S)-2-carboxy-2-((R)-4-carboxy-4-(3-(3-((R)-5-cyclohexyl-1-(3,3-dimethyl-2-oxobutyl)-2-oxo-2,3,4,5-tetrahydro-1H-benzo[b][1,4]diazepin-3-yl)ureido)benzamido)butanamido)ethyl)phenoxy)-3-(2-((E)-3,3-dimethyl-5-sulfo-1-(4-sulfobutyl)indolin-2-ylidene)ethylidene)cyclohex-1-en-1-yl)vinyl)-3,3-dimethyl-5-sulfo-3H-indol-1-ium-1-yl)butane-1-sulfonate], the Kd in series [1] (FIG. 13, HEK-CCK2R cells, read-out: dissociation constant (KD)) was determined as 1 nM. For the same compound, the Kd in series [1] (Table 1, CCK2R-positive HEK-CCK2R cancer cells, read-out: KD) was found to be 0.67 nM. Also, the “affinity for CCK2R (in words)” value in series [1] (in vitro binding affinity data, HEK-CCK2R cells) was “very high affinity”. Further, the “fluorescence intensity in the tumors” value in series [2] (10 nmol, 2 h post-injection) is reported as “very high fluorescence intensity”. In addition, the “tumor uptake, head-to-head comparison” value in series [2] (FIG. 9, 10 nmol, 2 h post-injection, compounds 21, 40-44) is “highest tumor uptake”. For the same compound, in series [2] (setting [5]), the “tissue uptake (whole-body imaging and ex vivo biodistribution)” value is given as “solely taken up in CCK2R positive tumors with no accumulation in other tissues”; the tumor-to-background ratio result is given as “very high”. Also, in series [3], the Stokes shift came to 20 nm, the emission wavelength stood at 796 nm and the excitation wavelength was determined as 776 nm. Also, the “labelling of HEK-CCK2 cells” value in series [4] was “efficiently label”.
